Source: PubChem BioAssay (NCI)
Several values for one entry are separate records, joined by “and”; a condition that tells them apart may be missing. Equal entries are not always repeated.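 In this assay, cells in 96-well plates receive the compound at five concentrations for 48 hours. Endpoints are linearly interpolated between the surrounding concentrations. GI50: concentration for 50% inhibition of growth. TGI is the concentration that stops growth completely.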

Assays:
Assay in all cases: DTP human tumour cell line panel, 48 h
NCI-H23 lung = test system: NCI-H23 lung
HCT-15 colon = test system: HCT-15 colon
HL-60(TB) leukemia = test system: HL-60(TB) leukemia
HOP-92 NSCLC = test system: HOP-92 NSCLC
UACC-62 melanoma = test system: UACC-62 melanoma
MDA-MB-231 breast = test system: MDA-MB-231 breast
786-0 renal = test system: 786-0 renal
U251 CNS = test system: U251 CNS
OVCAR-5 ovarian = test system: OVCAR-5 ovarian
NCI-H226 lung = test system: NCI-H226 lung

Structure (SMILES) | GI50 (NCI-H23 lung) [µM] | TGI (NCI-H23 lung) | GI50 (HCT-15 colon) [µM] | TGI (HCT-15 colon) | GI50 (HL-60(TB) leukemia) [µM] | TGI (HL-60(TB) leukemia) [µM] | GI50 (HOP-92 NSCLC) [µM] | TGI (HOP-92 NSCLC) | GI50 (UACC-62 melanoma) [µM] | TGI (UACC-62 melanoma) | GI50 (MDA-MB-231 breast) [µM] | TGI (MDA-MB-231 breast) | GI50 (786-0 renal) [µM] | TGI (786-0 renal) | GI50 (U251 CNS) [µM] | TGI (U251 CNS) | GI50 (OVCAR-5 ovarian) [µM] | TGI (OVCAR-5 ovarian) | GI50 (NCI-H226 lung) [µM] | TGI (NCI-H226 lung) [µM]
COc1cc(C(=O)N2CCN(C(=O)c3cc(OC)c(OC)c(OC)c3)C2=S)cc(OC)c1OC | 18.7 | 37.5 µM | 20.2 | 47.4 µM | 16 | 34.3 | 16.1 | 34.3 µM | 14.9 | 29.9 µM | 16.7 | 36 µM | 11.4 | 26.8 µM | 16.3 | 34.4 µM | 23.2 | 57.7 µM | 19.5 | 39.1
C=CCC1(c2ccc(OC)cc2)C=CC(=O)CC1 (centres undefined) |  | > 100 µM |  | > 100 µM |  | > 100 |  | > 100 µM |  | > 100 µM |  | > 100 µM |  | > 100 µM |  | > 100 µM |  | > 100 µM |  | > 100
CC(NCCC(c1ccccc1)c1ccccc1)c1ccccc1 (centres undefined) | 2.03 | 7.81 µM | 2.57 | 7.83 µM | 2.13 | 4.19 | 1.05 | 3.56 µM | 1.62 | 3.57 µM | 2.17 | 5.74 µM | 1.81 | 3.67 µM | 1.59 | 2.99 µM | 2.88 | 11.4 µM | 2.78 | 13.8
COc1ccc(-c2ccc(=O)oc2C#Cc2cc(OC)c(OC)c(OC)c2)cc1O | 1.17 | > 100 µM | 0.324 | > 100 µM | 0.316 | > 100 | 0.999 | 9.87 µM | 0.35 | > 100 µM | 0.905 | 10.1 µM | 1.18 | > 100 µM | 0.358 | 4.58 µM | 2.49 | 33.9 µM | 1.42 | > 100
C[C@@H]1C[C@@H]([C@@H](CC2CC(=O)NC(=O)C2)OC(=O)CC(=O)c2ccccc2)C(=O)[C@@H](C)C1 | 0.545 | > 80.6 µM | 0.809 | > 100 µM | 0.402 | > 100 | 0.324 | > 24.9 µM | 0.915 | > 100 µM | 2.94 | 90.5 µM | 0.293 | 13.2 µM | 0.925 | > 100 µM | 0.662 | > 100 µM | 0.686 | > 100
CCN1CCN(c2cc(C)c3cc(NC(=O)c4ccc(OC)c(OC)c4)ccc3n2)CC1 | 50.5 | > 100 µM | 3.02 | > 100 µM | 4.19 | > 44.8 | 13.4 | 85.5 µM | > 39.4 | > 64.8 µM | 11.2 | > 100 µM | 7.12 | > 55.3 µM | > 50.5 | > 100 µM | 15.7 | > 100 µM | > 54.7 | > 100
N=c1c2c(-c3ccccc3)c(-c3ccccc3)n(Cc3ccccc3)c2ncn1C1CCC(O)CC1 (centres undefined) | 0.836 | 22 µM | 0.27 | 14.7 µM | 1.19 | 3.66 | 0.24 | 4.33 µM | 0.534 | 7.06 µM | 1.29 | 4.65 µM | 2.12 | 17.3 µM | 0.15 | 5.3 µM | 5.84 | 22.4 µM | 0.517 | 16.8
CC1(C)OC2C(CO[Si](C)(C)C(C)(C)C)OC(n3c(I)c(C#C[Si](C)(C)C)c(=O)[nH]c3=O)C2O1 (centres undefined) | 18.2 | 50.9 µM | 2.39 | 15.4 µM | 2.35 | 15.2 | 0.0445 | 14.1 µM | 21.5 | 50.5 µM | 4.22 | 17 µM | 13.1 | 26.8 µM | 19.4 | 65.7 µM | 18.7 | 42.8 µM | 17 | 34
CNCCOC(=O)/C=C1\CC[C@H]2[C@@H]([C@@H](O)C(=O)[C@@H]3[C@]2(C)CC[C@H](O)[C@]3(C)C(=O)OC)[C@H]1C | 0.245 | 0.644 µM | 0.608 | 2.55 µM | 0.244 | 0.687 | 0.527 | 3.52 µM | 1.41 | 2.93 µM | 1.77 | 5.91 µM | 0.226 | 0.681 µM | 0.324 | 1.17 µM | 1.18 | 2.68 µM | 0.566 | 1.99
NNC(=O)CNc1cccc(Br)c1 |  | > 100 µM |  | > 100 µM |  | > 100 |  | > 100 µM |  | > 100 µM |  | > 100 µM |  | > 100 µM |  | > 100 µM |  | > 100 µM |  | > 100
CCN(CC)CCNc1nc(N)c(C#N)c(C#N)c1C#N |  | > 10 µM |  | > 10 µM |  | > 10 |  | > 10 µM |  | > 10 µM |  | > 10 µM |  | > 10 µM |  | > 10 µM |  | > 10 µM |  | > 10
CCOC(=O)Nc1cc2c(c(N)n1)N=C(c1ccccc1)CO2 | 0.569 | 21.4 µM | 0.0894 | > 100 µM | 0.0303 |  | 7.13 | 29.1 µM | 0.359 | 31.3 µM | 0.691 | 6.43 µM | 1.21 | 20.9 µM | 0.183 | 14.3 µM | 1.15 | 48.5 µM | 4.16 | 41.4
Cc1nc(N)sc1N=Nc1ccccc1Br |  | 56.3 µM |  | 69.8 µM |  | > 75.9 |  | 46.1 µM |  | 45.4 µM |  | 67 µM |  | 69.5 µM |  | 52.6 µM |  | > 90.5 µM |  | 68.2
NC(N)=NCCCC(=O)O |  | > 100 µM |  | > 100 µM |  | > 100 |  | > 100 µM |  | > 100 µM |  | > 100 µM |  | > 100 µM |  | > 100 µM |  | > 100 µM |  | > 100
CC(=O)ON1CCCC(P(=O)(OCCSC(=O)C(C)(C)C)OCCSC(=O)C(C)(C)C)C1=O (centres undefined) | 3.3 | 28.5 µM | 0.973 | 76.1 µM | 1.68 | 11.3 | 0.87 | 31.2 µM | 1.57 | 8.58 µM | 1.34 | 87.8 µM | 1.41 | 90.4 µM | 1.02 | 64.3 µM | 6.46 | > 100 µM | 2.27 | 26.4
CCCC(=O)Nc1cn(COC)c(C(=O)N2C[C@@H]3C[C@]34C2=CC(=O)c2[nH]cc(C)c24)n1 |  | 14.7 µM and 6.4 µM |  | 50 µM and 38.9 µM |  | 4.9 | 5.51 | 20.6 µM and 18.2 µM | 12.4 | 16.8 µM and 24.9 µM | 19.9 | 27 µM and 51.1 µM | 3.14 | 14.8 µM and 10.1 µM | 4.93 | 50 µM and 21.1 µM | 3.3 | 50 µM and 9.52 µM |  | 34.1
N#Cc1nn(-c2cc(=O)[nH]c3ccc(Cl)cc23)c(N)c1C#N | > 100 | > 100 µM | > 100 | > 100 µM | > 100 | > 100 | 10.2 | > 100 µM | > 100 | > 100 µM | 89.8 | > 100 µM | > 100 | > 100 µM | > 100 | > 100 µM | > 100 | > 100 µM | > 100 | > 100
Cc1c(N(C)C)ccc2c(=O)c3cccc(CC(=O)O)c3oc12 |  | > 100 µM |  | > 100 µM |  | > 100 |  | > 100 µM |  | > 100 µM |  | > 100 µM |  | > 100 µM |  | > 100 µM |  | > 100 µM |  | > 100
O=C(/C=C/c1ccc[nH]1)c1ccc(-n2ccc(C(F)(F)F)n2)cc1 | > 100 | > 100 µM | > 100 | > 100 µM | 0.307 | 4.12 | > 100 | > 100 µM | > 100 | > 100 µM | > 100 | > 100 µM | 6.17 | > 100 µM | 5.55 | > 100 µM | > 100 | > 100 µM |  | > 100
